According to patent US20230263822A1, “MODULATION OF FACTOR 11 EXPRESSION” (Ionis Pharmaceuticals, Inc., priority 2008, published 2023):

Experiments:
[1] = Tolerability in Sprague-Dawley rats: kidney function, urine protein/creatinine (Example 35); conditions: Sprague Dawley rats
Protocol: A control group of four Sprague Dawley rats was injected subcutaneously with PBS twice per week for 6 weeks. Body weight measurements were taken before and throughout the treatment period. Urine samples were taken before the start of treatment. Three days after the last dose, urine samples were taken and the rats were sacrificed. Organ weights were measured and blood was collected for further analysis.
To evaluate the effect of kidney function, plasma concentrations of blood urea nitrogen (BUN) and creatinine were measured using an automated clinical chemistry analyzer (Hitachi Olympus AU400e, Melville, N.Y.).

[2] = tested on: human Factor 11 mRNA; assay: Antisense inhibition of human Factor 11 in HepG2 cells, electroporation, 8,000 nM (Example 30); assay type: cell-based; conditions: electroporation, 8,000 nM antisense oligonucleotide
Summary of the method: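 HepG2 cells electroporated with 8,000 nM 5-10-5, 5-8-5 or 6-8-6 MOE gapmers (phosphorothioate, 5-methylcytidine), ~24 h. Factor 11 mRNA quantified by qRT-PCR, normalised to RIBOGREEN total RNA. Reported as percent inhibition versus untreated cells.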

[3] = design: species or system Sprague-Dawley rats; conditions: rat, in vivo
Protocol: Three days after the last dose, the rats were sacrificed and livers and kidneys were collected for analysis.
The concentration of the full-length oligonucleotide as well as the total oligonucleotide concentration (including the degraded form) was measured. The method used is a modification of previously published methods (Leeds et al., 1996; Geary et al., 1999) which consist of a phenol-chloroform (liquid-liquid) extraction followed by a solid phase extraction. An internal standard (ISIS 355868, a 27-mer 2′-O-methoxyethyl modified phosphorothioate oligonucleotide, […], designated herein as SEQ ID NO: 270) was added prior to extraction. […] The results are presented in Tables 77 and 78, expressed as μg/g liver or kidney tissue. Half-lives were then calculated using WinNonlin software ([…]).

[4] = After treatment, 50 mg/kg s.c. twice per week for 6 weeks
[5] = Before antisense oligonucleotide treatment

| Substance | Urine protein/creatinine ratio [1, 4] | Urine protein/creatinine ratio [1, 5] | Percent inhibition of human Factor 11 mRNA levels [2] [%] | Half-life in the liver and kidney [3] [days] |
| --- | --- | --- | --- | --- |
| 416825 (antisense GCCCTTCATGTCTAGGTCCA; 5-10-5 gapmer, further chemistry not given here) [compound 416825] | 5.4 | 1.1 | 90 | 16 |
| 416850 (antisense TGCACAGTTTCTGGCAGGCC; 5-10-5 gapmer, further chemistry not given here) [compound 416850] | 4.0 | 1.0 | 91 | 18 |
| 416858 (antisense ACGGCATTGGTGCACAGTTT; 5-10-5 gapmer, further chemistry not given here) [compound 416858] | 4.4 | 0.9 | 90 | 26 |
| 416864 (antisense GGCAGCGGACGGCATTGGTG; 5-10-5 gapmer, further chemistry not given here) [compound 416864] | 4.0 | 1.2 | 88 | 13 |
| 416892 (antisense GCCCTTCATGTCTAGGTCCA; 3-14-3 chimeric gapmer, further chemistry not given here) [compound 416892] | 21.3 | 0.8 |  | 12 |
| 416925 (antisense GGTGCACAGTTTCTGGCAGG; 3-14-3 gapmer chemistry, further chemistry not given here) [compound 416925] | 4.3 | 1.0 |  | 12 |
| 416999 (antisense GCACAGTTTCTGGCAGGCCT; 2-13-5 gapmer chemistry, further chemistry not given here) [compound 416999] | 9.1 | 1.3 |  | 9 |
| 417002 (antisense GGTGCACAGTTTCTGGCAGG; 2-13-5 gapmer chemistry, further chemistry not given here) [compound 417002] | 2.4 | 1.0 |  | 11 |
| 417003 (antisense TGGTGCACAGTTTCTGGCAG; 2-13-5 gapmer chemistry, further chemistry not given here) [compound 417003] | 4.8 | 0.9 |  | 10 |
